Test results published in article PMC10331583, “Control of fibrosis with enhanced safety via asymmetric inhibition of prolyl‐tRNA synthetase 1” (EMBO Molecular Medicine, 2023).
“And” between values parts separate entries of the source, which are not always exact repeats. Identical values can stand only once. Like-named read-outs stand apart in the source and are kept apart here.

Assays:
WI‐26 VA4 cells [1] = test: Collagen ELISA (secreted pro‐collagen I)
Method: WI‐26 VA4 cells were seeded at 3.5 × 10^4 cells/well on 24 well plates. After 24 h, the cells were starved of serum for 6 h. Then, the cells were incubated with the indicated concentrations of compounds in the presence of TGF‐β (2 ng/ml) (R&D systems, 240‐B‐002) for 72 h. The supernatant of the cells was collected and centrifuged at 500 g for 5 min to remove cell debris. Then, the level of pro‐collagen I in the supernatant was determined using Human Pro‐collagen I alpha 1 DuoSet ELISA (R&D systems, DY6220‐05) and DuoSet ELISA Ancillary Reagent Kit 2 (R&D systems, DY008) following the manufacturer's instructions.

WI‐26 VA4 cells [2] = test: Puromycin incorporation assay; assay type: cell-based, human; settings: for activity at 0.01 µM: WI26VA4, 10 nM; for activity at 0.03 µM: WI26VA4, 30 nM; for activity at 3 µM: WI26VA4, 3000 nM; for activity at 10 µM: WI26VA4, 10000 nM
Method: After being rinsed with cold PBS twice, the cells were collected and resuspended in 200 μl of the carbonate bicarbonate buffer (Sigma Aldrich, C3041‐50CAP) with protease inhibitor. The cell lysates were obtained by sonication and centrifugation at 20,000 g for 15 min at 4°C. After protein quantification using a Pierce™ BCA Protein Assay Kit (Thermo Fisher Scientific, 23225), 400 ng of the proteins was coated to ELISA plates for 18 h at 4°C. […] The plates were rinsed with the washing buffer for three times after each antibody incubation step. […] The amount of puromycin incorporated in proteins was determined by measuring the absorbance at 450 nm (reference wavelength at 620 nm). Experimental values marked in red with strikethrough text in the Figure Source Data file were excluded from the analysis. These values were determined by considering the values of biological and technical replicates under the same condition, as well as the values at the former and later chemical concentrations.

[3] = test system: TNT Quick Coupled Transcription/Translation System (luciferase synthesis); assay type: biochemical
[4] = log(inhibitor) vs. response, variable slope (four parameters)
[5] = log(inhibitor) vs. response, variable slope (four parameters), concentration in nM
[6] = Homo sapiens, read-out: Puromycin, % of control, average
[7] = Homo sapiens, read-out: Puromycin, % of control, single replicate

## O=C(C[C@H]1NCCC[C@@H]1O)Cn1cnc2ccc(-c3cccc(F)c3)cc21 [DWN11251]
WI‐26 VA4 cells [1]; Homo sapiens, WI26VA4, read-out: Collagen, % of control, average, 30 nM, average
  activity at 0.03 µM: 108%
WI‐26 VA4 cells [1]; Homo sapiens, WI26VA4, read-out: Collagen, % of control, average, 100 nM, average
  activity at 0.1 µM: 90.8%
WI‐26 VA4 cells [1]; Homo sapiens, WI26VA4, read-out: Collagen, % of control, average, 300 nM, average
  activity at 0.3 µM: 50.1%
WI‐26 VA4 cells [1]; Homo sapiens, WI26VA4, read-out: Collagen, % of control, average, 1000 nM, average
  activity at 1 µM: 12.4%
WI‐26 VA4 cells [1]; Homo sapiens, WI26VA4, read-out: Collagen, % of control, average, 3000 nM, average
  activity at 3 µM: 3.27%
WI‐26 VA4 cells [1]; Homo sapiens, WI26VA4, read-out: Collagen, % of control, average, 10000 nM, average
  activity at 10 µM: 2.46%
WI‐26 VA4 cells [1]; Homo sapiens, WI26VA4, read-out: Collagen, % of control, average, 30000 nM, average
  activity at 30 µM: 2.88%
WI‐26 VA4 cells [1]; [4]
  Collagen HillSlope (best-fit value): -1.623
WI‐26 VA4 cells [1]; [5]
  Collagen LogIC50 (best-fit value): 2.409
WI‐26 VA4 cells [1]; relative to HF, Fig 5E
  Relative (CC50)/(collagen IC50): 2.11
WI‐26 VA4 cells [2]; 10 nM, 0.01 µM
  Puromycin, % of control, single replicate: 101.25 % of control and 94.41 % of control and 100.93 % of control and 102.37 % of control and 93.16 % of control and 112.99 % of control and 111.09 % of control and 112.68 % of control
WI‐26 VA4 cells [2]; 30 nM, 0.03 µM
  Puromycin, % of control, single replicate: 103.89 % of control and 102.07 % of control and 109.54 % of control and 108.35 % of control and 99.59 % of control and 116.49 % of control and 113.07 % of control and 114.50 % of control
WI‐26 VA4 cells [2]; 100 nM, 0.1 µM
  Puromycin, % of control, single replicate: 103.01 % of control and 100.87 % of control and 101.28 % of control and 109.49 % of control and 107.49 % of control and 101.40 % of control and 114.53 % of control and 111.00 % of control and 121.31 % of control
WI‐26 VA4 cells [2]; 300 nM, 0.3 µM
  Puromycin, % of control, single replicate: 88.40 % of control and 85.23 % of control and 87.58 % of control and 94.28 % of control and 93.99 % of control and 87.62 % of control and 94.72 % of control and 94.55 % of control and 109.57 % of control
WI‐26 VA4 cells [2]; 1000 nM, 1 µM
  Puromycin, % of control, single replicate: 106.50 % of control and 101.49 % of control and 107.47 % of control and 104.76 % of control and 102.45 % of control and 95.18 % of control and 122.63 % of control and 109.16 % of control and 107.56 % of control
WI‐26 VA4 cells [2]; 3000 nM, 3 µM
  Puromycin, % of control, single replicate: 61.69 % of control and 62.47 % of control and 62.84 % of control and 57.24 % of control
WI‐26 VA4 cells [2]; 10000 nM, 10 µM
  Puromycin, % of control, single replicate: 19.53 % of control and 20.29 % of control and 21.78 % of control and 23.63 % of control and 20.64 % of control and 21.23 % of control and 21.73 % of control and 22.58 % of control
WI‐26 VA4 cells [2]; 30000 nM, 30 µM
  Puromycin, % of control, single replicate: 0.45 % of control and 0.66 % of control and 0.0147 % of control and 1.69 % of control and 1.62 % of control and 0.33 % of control and 0.81 % of control and 1.20 % of control and -0.12 % of control
WI‐26 VA4 cells [2]; [6]
  activity at 0.01 µM: 103%
  activity at 0.03 µM: 108%
  activity at 3 µM: 60.8%
  activity at 10 µM: 21.3%
WI‐26 VA4 cells [2]; [7]
  activity at 0.01 µM: 99.1%
  activity at 0.03 µM: 108%
  activity at 3 µM: 59.6%
  activity at 10 µM: 20.3%
WI‐26 VA4 cells [2]; Homo sapiens, WI26VA4, 100 nM, read-out: Puromycin, % of control, average
  activity at 0.1 µM: 108%
WI‐26 VA4 cells [2]; Homo sapiens, WI26VA4, 300 nM, read-out: Puromycin, % of control, average
  activity at 0.3 µM: 92.9%
WI‐26 VA4 cells [2]; Homo sapiens, WI26VA4, 1000 nM, read-out: Puromycin, % of control, average
  activity at 1 µM: 106%
WI‐26 VA4 cells [2]; Homo sapiens, WI26VA4, 30000 nM, read-out: Puromycin, % of control, average
  activity at 30 µM: 0.74%
WI‐26 VA4 cells [2]; Homo sapiens, WI26VA4, log(inhibitor) vs. response, variable slope (four parameters), read-out: Puromycin, IC50 (best-fit value)
  IC50: 4.24 µM
WI‐26 VA4 cells [2]; [4]
  Puromycin, HillSlope (best-fit value): -1.784
WI‐26 VA4 cells [2]; [5]
  Puromycin, LogIC50 (best-fit value): 3.627
[3]; 60 nM, Experiment #1, replicates, 0.06 µM
  TNT-luciferase % of control: 107.20 % of control and 104.88 % of control and 105.66 % of control
[3]; 60 nM, Experiment #2, replicates, 0.06 µM
  TNT-luciferase % of control: 114.45 % of control and 123.12 % of control and 122.25 % of control
[3]; 60 nM
  TNT-luciferase % of control, average: 112.93 % of control
[3]; 200 nM, Experiment #1, replicates, 0.2 µM
  TNT-luciferase % of control: 108.74 % of control and 107.20 % of control and 111.83 % of control
[3]; 200 nM, Experiment #2, replicates, 0.2 µM
  TNT-luciferase % of control: 104.91 % of control and 109.25 % of control and 124.86 % of control
[3]; 200 nM
  TNT-luciferase % of control, average: 111.13 % of control
[3]; 600 nM, Experiment #1, replicates, 0.6 µM
  TNT-luciferase % of control: 114.14 % of control and 111.05 % of control and 117.22 % of control
[3]; 600 nM, Experiment #2, replicates, 0.6 µM
  TNT-luciferase % of control: 98.84 % of control (2×) and 100.58 % of control
[3]; 600 nM
  TNT-luciferase % of control, average: 106.78 % of control
[3]; 2000 nM, Experiment #1, replicates, 2 µM
  TNT-luciferase % of control: 91.77 % of control (2×) and 97.94 % of control
[3]; 2000 nM, Experiment #2, replicates, 2 µM
  TNT-luciferase % of control: 83.24 % of control and 92.77 % of control and 96.24 % of control
[3]; 2000 nM
  TNT-luciferase % of control, average: 92.29 % of control
[3]; 6000 nM, Experiment #1, replicates, 6 µM
  TNT-luciferase % of control: 60.77 % of control and 59.00 % of control and 60.23 % of control
[3]; 6000 nM, Experiment #2, replicates, 6 µM
  TNT-luciferase % of control: 57.75 % of control and 61.56 % of control and 58.87 % of control
[3]; 6000 nM
  TNT-luciferase % of control, average: 59.70 % of control
[3]; 20000 nM, Experiment #1, replicates, 20 µM
  TNT-luciferase % of control: 9.64 % of control and 9.49 % of control and 10.87 % of control
[3]; 20000 nM, Experiment #2, replicates, 20 µM
  TNT-luciferase % of control: 9.97 % of control and 10.14 % of control and 11.01 % of control
[3]; 20000 nM
  TNT-luciferase % of control, average: 10.19 % of control
[3]; 60000 nM, Experiment #1, replicates, 60 µM
  TNT-luciferase % of control: 0.32 % of control and 0.35 % of control and 0.31 % of control
[3]; 60000 nM, Experiment #2, replicates, 60 µM
  TNT-luciferase % of control: 0.26 % of control and 0.27 % of control and 0.30 % of control
[3]; 60000 nM
  TNT-luciferase % of control, average: 0.30 % of control
[3]; 200000 nM, Experiment #1, replicates, 200 µM
  TNT-luciferase % of control: 0.0123 % of control and 0.00453 % of control and 0.000979 % of control
[3]; 200000 nM, Experiment #2, replicates, 200 µM
  TNT-luciferase % of control: 0.0176 % of control and 0.0228 % of control and 0.0243 % of control
[3]; 200000 nM
  TNT-luciferase % of control, average: 0.0137 % of control
[3]; [5]
  TNT-luciferase LogIC50 (best-fit value): 3.802
[3]; log(inhibitor) vs. response, variable slope (four parameters), unit from head concentration (nM), read-out: TNT-luciferase IC50 (best-fit value)
  IC50: 6340 nM
